Experimental data: patent EP1202975B1, “SUBSTITUTED POLYCYCLIC ARYL AND HETEROARYL PYRAZINONES USEFUL FOR SELECTIVE INHIBITION OF THE COAGULATION CASCADE” (Pharmacia Corporation, priority 1999, dated 2000)
Where two headings read alike, the source gives them in different places.

Legend:
[1] = biological target: T1, TF-VIIa (Homo sapiens, UniProt P08709); test: TF-VIIa Assay; format: biochemical; details: for IC50: read-out: IC50 or % Inhibition TF-VIIa (30 µM); for IC50 or % Inhibition TF-VIIa (30 µM): % inhibition at 30 µM
T1 construct: 2nM recombinant human factor VIIa; purchased American Diagnostica, Greenwich CT; host or cells: soluble TF made in house in E. coli

[2] = biological target: Human factor Xa (Homo sapiens, UniProt P00742); test: Xa Assay; details: for IC50 or % Inhibition Factor Xa (30 µM): % inhibition at 30 µM
[3] = cells given as a plain number (IC50)

Chain of Human factor Xa (P00742 235-488 limits assumed): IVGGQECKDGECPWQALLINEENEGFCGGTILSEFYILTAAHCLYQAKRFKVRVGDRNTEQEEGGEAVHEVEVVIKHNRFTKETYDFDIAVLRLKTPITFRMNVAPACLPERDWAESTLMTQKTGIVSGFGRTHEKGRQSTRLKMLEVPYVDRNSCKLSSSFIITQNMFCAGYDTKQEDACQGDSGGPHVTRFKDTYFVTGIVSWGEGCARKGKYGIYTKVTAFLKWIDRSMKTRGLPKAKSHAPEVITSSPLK
Chain of Human factor Xa (P00742 41-179 limits assumed): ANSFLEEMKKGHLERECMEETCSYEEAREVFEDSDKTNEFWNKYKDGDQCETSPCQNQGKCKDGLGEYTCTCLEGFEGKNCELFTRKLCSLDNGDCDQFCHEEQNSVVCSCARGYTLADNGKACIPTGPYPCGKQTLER
T1 sequence (P08709 213-466 limits assumed): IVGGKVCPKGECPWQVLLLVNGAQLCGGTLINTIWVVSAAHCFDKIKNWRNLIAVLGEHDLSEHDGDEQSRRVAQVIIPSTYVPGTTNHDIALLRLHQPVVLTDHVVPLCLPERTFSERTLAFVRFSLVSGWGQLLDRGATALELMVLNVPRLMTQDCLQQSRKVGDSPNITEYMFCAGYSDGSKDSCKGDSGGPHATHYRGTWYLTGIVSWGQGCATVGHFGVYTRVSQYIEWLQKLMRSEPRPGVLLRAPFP
T1 sequence (P08709 61-212 limits assumed): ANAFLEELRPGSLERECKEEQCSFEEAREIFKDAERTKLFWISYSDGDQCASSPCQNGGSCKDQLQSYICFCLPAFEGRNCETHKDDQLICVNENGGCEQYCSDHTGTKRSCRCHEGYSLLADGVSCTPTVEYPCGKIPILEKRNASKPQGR
T1 sequence (P13726 33-251 partner limits assumed): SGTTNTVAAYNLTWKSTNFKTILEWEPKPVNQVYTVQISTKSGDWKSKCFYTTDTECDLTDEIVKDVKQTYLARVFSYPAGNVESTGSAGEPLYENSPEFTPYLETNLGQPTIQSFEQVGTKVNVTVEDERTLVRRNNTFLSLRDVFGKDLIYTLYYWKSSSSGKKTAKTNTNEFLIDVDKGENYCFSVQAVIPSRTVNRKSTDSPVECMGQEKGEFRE

IC50 ([1]; cells without % sign: IC50) [nM]	IC50 or % Inhibition Factor Xa (30 µM) [2]	IC50 [1, 3] [nM]	IC50 [2] [µM]	IC50 or % Inhibition TF-VIIa (30 µM) [1] [%@30]	SMILES
40	14%	–	–	–	N=C(N)c1ccc(CNC(=O)Cn2c(-c3cccc(N)c3)c(Cl)nc(NC3CCC3)c2=O)c(F)c1 [1543-39]
–	–	5000	> 100	–	N=C(N)c1ccc(CNC(=O)Cn2c(Cc3ccccc3)cnc(NCCc3ccccc3)c2=O)cc1 [Example 2]
–	–	200	1	–	N=C(N)NCCC[C@H](NC(=O)Cn1c(-c2ccccc2)c(Cl)nc(NCCc2ccccc2)c1=O)C(=O)c1nccs1 [Example 3]
–	–	7000	4	–	N=C(N)NCCC[C@H](NC(=O)Cn1c(CCc2ccccc2)c(Cl)nc(NCCc2ccccc2)c1=O)C(=O)c1nccs1 [Example 5]
–	–	100	1	–	N=C(N)NCCC[C@H](NC(=O)Cn1c(-c2ccccc2)cnc(NCCc2ccccc2)c1=O)C(=O)c1nccs1 [Example 6]
–	–	200	3	–	N=C(N)NCCC[C@H](NC(=O)Cn1c(Cc2ccccc2)cnc(NCCc2ccccc2)c1=O)C(=O)c1nccs1 [Example 7]
–	–	3000	1	–	N=C(N)NCCC[C@H](NC(=O)Cn1c(CCc2ccccc2)cnc(NCCc2ccccc2)c1=O)C(=O)c1nccs1 [Example 8]
–	–	91000	> 100	–	N=C(N)NCCCNC(=O)Cn1c(-c2ccccc2)cnc(NCCc2ccccc2)c1=O [Example 11]
–	–	> 100000	> 100	–	N=C(N)NCCCCNC(=O)Cn1c(-c2ccccc2)cnc(NCCc2ccccc2)c1=O [Example 12]
–	–	> 100000	> 100	–	N=C(N)NCCCCCNC(=O)Cn1c(-c2ccccc2)cnc(NCCc2ccccc2)c1=O [Example 13]
–	–	> 100000	> 100	–	COc1ccc(-c2cnc(NCCc3ccccc3)c(=O)n2CC(=O)NCCCCNC(=N)N)cc1 [Example 14]
–	–	> 100000	> 100	–	N=C(N)NCCCCNC(=O)Cn1c(-c2ccc3c(c2)OCO3)cnc(NCCc2ccccc2)c1=O [Example 16]
–	41%	710	–	–	CC(C)Nc1nc(Cl)c(-c2cccc(C#N)c2)n(CC(=O)NCc2ccc(C(=N)N)cc2)c1=O [Example 17]
–	22%@30	800	–	–	N=C(N)c1ccc(CNC(=O)Cn2c(-c3ccccc3)c(Cl)nc(NCCc3ccncc3)c2=O)cc1 [Example 19]
–	21%@30	–	–	8	N=C(N)c1ccc(CNC(=O)Cn2c(-c3ccc(-c4ccccc4)cc3)c(Cl)nc(NCCc3cccnc3)c2=O)cc1 [Example 21]
–	13%@30	–	–	0	N=C(N)c1ccc(CNC(=O)Cn2c(-c3ccc(-c4ccccc4)cc3)c(Cl)nc(NCCc3ccc(Cl)cc3)c2=O)cc1 [Example 22]
–	38%@30	1700	–	–	N=C(N)c1ccc(CNC(=O)Cn2c(-c3cccc(Cl)c3)c(Cl)nc(NCc3ccccc3)c2=O)cc1 [Example 23]
–	–	660	10.6	–	N=C(N)NCCCNc1nc(Cl)c(-c2ccccc2)n(CC(=O)NCc2ccc(C(=N)N)cc2)c1=O [Example 47]
–	20%	570	–	–	N=C(N)NCCNc1nc(Cl)c(-c2ccccc2)n(CC(=O)NCc2ccc(C(=N)N)cc2)c1=O [Example 48]
–	–	570	28.9	–	N=C(N)NCCCCNc1nc(Cl)c(-c2ccccc2)n(CC(=O)NCc2ccc(C(=N)N)cc2)c1=O [Example 49]
–	39%	500	–	–	N=C(N)CCNc1nc(Cl)c(-c2ccccc2)n(CC(=O)NCc2ccc(C(=N)N)cc2)c1=O [Example 50]
–	–	650	9.68	–	N=C(N)c1ccc(CNC(=O)Cn2c(-c3ccccc3)c(Cl)nc(NCc3ccc(C(=N)N)cc3)c2=O)cc1 [Example 51]
–	–	590	24	–	N=C(N)c1ccc(CNC(=O)Cn2c(-c3ccccc3)c(Cl)nc(NCc3cccc(C(=N)N)c3)c2=O)cc1 [Example 52]
